Legend:
Test in all cases: relative viability (nuclei count vs DMSO), 5 days (fraction); higher = more cells survive
[1] = compound: O=C(C[C@H]1NCCC[C@@H]1O)Cn1cnc2cc(Br)c(Cl)cc2c1=O (racemic) [Halofuginone] + CC(C)C[C@H](NC(=O)[C@H](Cc1ccccc1)NC(=O)c1cnccn1)B(O)O [Bortezomib] (partner 0.002 µM)
In short: (§1)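 Dosing by pin tool came one day after lung cancer cell lines were seeded in 1536-well plates, using either one drug or a fixed anchor-drug dose plus five library-drug doses (not always all listed) in √10 steps. After 5 days, nuclei were counted on 4× images. Relative viability is treated-well nuclei count divided by vehicle-well nuclei count, and values are medians of duplicate plates.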

[2] = compound: COc1cc2c(Oc3ccc4[nH]c(C)cc4c3F)ncnc2cc1OCCCN1CCCC1 [Cediranib] + Cc1nc(Nc2ncc(C(=O)Nc3c(C)cccc3Cl)s2)cc(N2CCN(CCO)CC2)n1 [Dasatinib] (partner 0.075 µM)
In short: as §1

[3] = compound: O=C(C[C@H]1NCCC[C@@H]1O)Cn1cnc2cc(Br)c(Cl)cc2c1=O (racemic) [Halofuginone] + Nc1nc2[nH]cc(CCc3ccc(C(=O)N[C@@H](CCC(=O)O)C(=O)O)cc3)c2c(=O)[nH]1 [Pemetrexed] (partner 0.2 µM)
In short: as §1

[4] = compound: Nc1ncn([C@H]2C[C@H](O)[C@@H](CO)O2)c(=O)n1 [Decitabine] + O=C(c1cc(Cc2n[nH]c(=O)c3ccccc23)ccc1F)N1CCN(C(=O)C2CC2)CC1 [Olaparib] (partner 8 µM)
In short: as §1

Cell Line | relative viability ([1]; first compound 0.001 µM) | relative viability ([1]; first compound 0.003162 µM) | relative viability ([1]; first compound 0.01 µM) | relative viability ([1]; first compound 0.03162 µM) | relative viability ([1]; first compound 0.1 µM) | relative viability ([2]; first compound 0.04 µM) | relative viability ([2]; first compound 0.1265 µM) | relative viability ([2]; first compound 0.4 µM) | relative viability ([2]; first compound 1.265 µM) | relative viability ([2]; first compound 4 µM) | relative viability ([3]; first compound 0.001 µM) | relative viability ([3]; first compound 0.003162 µM) | relative viability ([3]; first compound 0.01 µM) | relative viability ([3]; first compound 0.03162 µM) | relative viability ([3]; first compound 0.1 µM) | relative viability ([4]; first compound 0.04 µM) | relative viability ([4]; first compound 0.1265 µM) | relative viability ([4]; first compound 0.4 µM) | relative viability ([4]; first compound 1.265 µM) | relative viability ([4]; first compound 4 µM)
LCLC-97TM1 | 0.49 | 0.365 | 0.512 | 0.144 | 0.179 | 0.893 | 0.81 | 0.799 | 0.876 | 0.834 | 0.183 | 0.156 | 0.189 | 0.16 | 0.153 | 0.0932 | 0.124 | 0.0895 | 0.0603 | 0.335
LCLC-103H | 1.06 | 0.9 | 1.1 | 0.956 | 1.03 | 0.594 | 0.578 | 0.413 | 0.511 | 0.5 | 0.479 | 0.362 | 0.455 | 0.443 | 0.498 | 0.688 | 0.69 | 0.498 | 0.491 | 0.742
LOU-NH91 | 0.461 | 0.498 | 0.484 | 0.459 | 0.535 | 0.522 | 0.78 | 0.51 | 0.495 | 0.552 | 0.405 | 0.391 | 0.425 | 0.4 | 0.403 | 0.667 | 0.742 | 0.649 | 0.577 | 0.601
LU99A | 1.15 | 1.1 | 1.07 | 1.14 | 0.8 | 0.504 | 0.465 | 0.513 | 0.433 | 0.655 | 0.218 | 0.157 | 0.16 | 0.163 | 0.181 | 0.247 | 0.238 | 0.217 | 0.193 | 0.187
LXF-289 | 0.928 | 1.08 | 0.985 | 0.996 | 0.908 | 0.252 | 0.3 | 0.192 | 0.3 | 0.236 | 0.913 | 0.972 | 0.849 | 0.864 | 0.788 | 0.302 | 0.255 | 0.203 | 0.157 | 0.128
NCI-H23 | 1 | 1.24 | 1.02 | 0.947 | 0.494 | 0.729 | – | 0.7 | 0.375 | 1.07 | 0.637 | 0.582 | 0.494 | 0.521 | 0.495 | 0.229 | 0.2 | 0.166 | 0.134 | 0.154
NCI-H322M | 1.16 | 1.13 | 1.28 | 1.16 | 0.997 | 0.239 | 0.277 | 0.247 | 0.258 | 0.255 | 0.633 | 0.63 | 0.554 | 0.586 | 0.398 | 0.641 | 0.684 | 0.646 | 0.47 | 0.383
NCI-H441 | 0.456 | 0.457 | 0.6 | 0.491 | 0.433 | 0.466 | – | 0.678 | 0.559 | 0.772 | 0.28 | 0.263 | 0.205 | 0.261 | 0.246 | 0.151 | 0.219 | 0.157 | 0.128 | 0.136
NCI-H460 | 1.07 | 1.09 | 0.922 | 0.66 | 0.0555 | 0.51 | 0.634 | 0.466 | 0.459 | 0.562 | 0.0584 | 0.0659 | 0.0638 | 0.0536 | 0.0574 | 0.176 | 0.118 | 0.0739 | 0.0563 | 0.0657
NCI-H520 | 0.723 | 0.721 | 0.494 | 0.579 | 0.314 | 0.264 | 0.238 | 0.162 | 0.155 | 0.174 | 0.726 | 0.662 | 0.784 | 0.611 | 0.246 | 0.201 | 0.297 | 0.251 | 0.188 | 0.167
NCI-H596 | 1 | 1.01 | 0.934 | 1.01 | 0.698 | 0.67 | 0.616 | 0.548 | – | 0.618 | 0.514 | 0.506 | 0.468 | 0.511 | 0.451 | 0.609 | 0.602 | 0.353 | 0.431 | 0.56
NCI-H647 | 1.2 | 1.1 | 0.833 | 0.912 | 0.367 | 0.215 | 0.177 | 0.102 | 0.22 | 0.224 | 0.191 | 0.171 | 0.172 | 0.155 | 0.0946 | 0.154 | 0.131 | 0.103 | 0.0693 | 0.0747
NCI-H650 | 0.903 | 0.877 | 0.717 | 0.694 | 0.576 | 0.434 | 0.458 | 0.434 | 0.453 | 0.482 | 0.981 | 0.954 | 0.946 | 0.825 | 0.696 | 0.196 | 0.198 | 0.203 | 0.123 | 0.152
NCI-H661 | 0.848 | 0.826 | 0.845 | 0.822 | 0.536 | 1.01 | 1.28 | 0.842 | 0.926 | 0.976 | 0.927 | 0.896 | 0.868 | 0.768 | 0.642 | 0.56 | 0.459 | 0.409 | 0.345 | 0.338
NCI-H838 | 1.16 | 1.03 | 0.746 | 0.614 | 0.121 | 0.292 | 0.268 | 0.285 | 0.241 | 0.315 | 0.266 | 0.256 | 0.249 | 0.189 | 0.128 | 0.26 | 0.273 | 0.261 | 0.193 | 0.199
NCI-H1355 | 1.13 | 1.19 | 1.18 | 1.24 | 0.951 | 0.686 | 0.745 | 0.658 | 0.655 | 0.747 | 1.07 | 1 | 1.02 | 1.03 | 0.919 | 0.33 | 0.348 | 0.245 | 0.194 | 0.195
NCI-H1437 | 0.548 | 0.604 | 0.504 | 0.483 | 0.253 | 0.455 | 0.543 | 0.445 | 0.385 | 0.399 | 0.318 | 0.337 | 0.329 | 0.307 | 0.254 | 0.435 | 0.416 | 0.381 | 0.268 | 0.246
NCI-H1650 | 0.234 | 0.24 | 0.208 | 0.221 | 0.203 | 0.343 | 0.384 | 0.328 | 0.37 | 0.299 | 0.339 | 0.388 | 0.375 | 0.325 | 0.284 | 0.509 | 0.367 | 0.259 | 0.2 | 0.207
NCI-H1651 | 0.93 | 0.972 | 0.915 | 0.898 | 0.903 | 0.53 | 0.46 | 0.432 | 0.385 | 0.343 | 0.56 | 0.489 | 0.568 | 0.572 | 0.592 | 0.136 | 0.163 | 0.12 | 0.144 | 0.118
NCI-H1666 | 0.856 | 0.902 | 0.791 | 0.85 | 0.618 | 0.831 | 0.888 | 0.797 | 0.829 | 0.762 | 0.883 | 0.78 | 0.904 | 0.878 | 0.806 | 0.65 | 0.698 | 0.723 | 0.619 | 0.651
NCI-H1734 | 1.14 | 0.919 | 0.939 | 0.814 | 0.632 | 0.463 | 0.647 | 0.479 | 0.364 | 0.518 | 0.408 | 0.438 | 0.401 | 0.441 | 0.488 | 0.274 | 0.302 | 0.203 | 0.152 | 0.191
NCI-H1755 | 0.968 | 0.913 | 0.94 | 0.99 | 0.816 | 0.471 | 0.59 | 0.343 | 0.463 | 0.424 | 0.418 | 0.469 | 0.413 | 0.423 | 0.484 | 0.648 | 0.609 | 0.43 | 0.359 | 0.365
NCI-H1792 | 0.965 | 1.01 | 1.01 | 0.942 | 0.866 | 0.823 | 0.872 | 0.557 | 0.923 | 0.957 | 0.922 | 0.813 | 0.53 | 0.891 | 0.391 | 0.211 | 0.288 | 0.148 | 0.0819 | 0.116
NCI-H1915 | 0.522 | 1.05 | 0.93 | 1 | 0.973 | 0.279 | 0.305 | 0.305 | 0.324 | 0.345 | 0.499 | 0.546 | 0.513 | 0.392 | 0.465 | 0.173 | 0.169 | 0.142 | 0.124 | 0.145
NCI-H1975 | 0.432 | 0.383 | 0.402 | 0.339 | 0.168 | 0.361 | 0.35 | 0.337 | 0.356 | 0.352 | 0.281 | 0.297 | 0.274 | 0.263 | 0.146 | 0.292 | 0.266 | 0.232 | 0.193 | 0.174
NCI-H1993 | 1.27 | 1.14 | 1.07 | 1.27 | 0.786 | 0.567 | 0.702 | 0.537 | 0.434 | 0.649 | 0.664 | 0.577 | 0.564 | 0.652 | 0.508 | 0.647 | 0.614 | 0.625 | 0.44 | 0.473
